Here are results for 1 compound from patent US7687457B2, “Cyclic molecular framework and derivatives thereof” (The University of Queensland, priority 1999, dated 2010).

The test relates to erythrocytes. As to the kind of experiment: haemolytic activity, lysis of erythrocytes. The class given is cell-based. Particulars: haemolysis; read-out: concentration causing 50% lysis of erythrocytes.

Where a SMILES comes first, the peptide text is derived from it.

As to `CC[C@H](C)[C@@H]1NC(=O)CNC(=O)[C@H](CC(N)=O)NC(=O)[C@H](Cc2ccc(O)cc2)NC(=O)[C@@H]2CSSC[C@@H]3NC(=O)[C@@H]4CCCN4C(=O)[C@H]([C@@H](C)CC)NC(=O)[C@H](Cc4ccc(O)cc4)NC(=O)[C@H](C(C)C)NC(=O)[C@@H]4CSSC[C@H](NC(=O)[C@H](CO)NC(=O)[C@H](CSSC[C@H](NC(=O)[C@@H]5CCCN5C1=O)C(=O)N[C@@H](C)C(=O)N[C@@H](CCC(=O)O)C(=O)N[C@@H](CO)C(=O)N4)NC(=O)CNC(=O)[C@H](CC(C)C)NC(=O)[C@H](CC(C)C)NC(=O)[C@H](C)NC(=O)[C@H]([C@@H](C)O)NC(=O)[C@H](C(C)C)NC(=O)[C@H]([C@@H](C)O)NC3=O)C(=O)N[C@@H](CO)C(=O)N[C@@H](CC(N)=O)C(=O)N[C@@H](CCCNC(=N)N)C(=O)N[C@@H](C(C)C)C(=O)N2` [cycloviolacin 01] (HELM PEPTIDE1{A.E.S.C.V.Y.I.P.C.T.V.T.A.L.L.G.C.S.C.S.N.R.V.C.Y.N.G.I.P.C}$PEPTIDE1,PEPTIDE1,4:R3-19:R3|PEPTIDE1,PEPTIDE1,9:R3-24:R3|PEPTIDE1,PEPTIDE1,17:R3-30:R3|PEPTIDE1,PEPTIDE1,1:R1-30:R2$$$V2.0), the EC50 was approximately 20 µM.
